In patent publication EP1923473B1, “Bis-diglycolamides (BISDGA) as new extractants for lanthanides [Ln(III)] and actinides [An(III)] from aqueous high-level wastes” (Universidad Autónoma de Madrid, priority 2006, dated 2008):

Experiments:
[1] = Radiolytic stability, extraction capability after irradiation; assay type: physicochemical; conditions: for DEu / DAm: after 1000 kGy
Method: The tests of stability against irradiation were carried out in the NAYADE facility at CIEMAT site, with external ^60Co sources with an approximate activity of 5000 Ci, with a homogeneous irradiation flux. The dose rate applied in all the experiments was 4 kGy/h and integrated doses of 250 kGy, 500 kGy, 750 kGy and 1000 kGy were considered. The irradiation device consists of a metal cylinder which is introduced in a rack wherein the ^60CO sources are placed radially, such that the irradiation is homogeneous. The irradiation process is carried out submersing the device in a pool of water with a depth of 4 meters.
Irradiation tests of the solid compound (in the absence of solvent) and of the compound dissolved in the "n-dodecane/1-octanol (95:5)%vol" mixture, equilibrated with 3 mol/L nitric acid, were carried out. The organic solutions were prepared and equilibrated as detailed in the previous sections A) and B).
Once each programmed integrated dose was reached, the extraction capability of the organic samples was evaluated as detailed in section C).
The irradiation of compound 4 in solid form (in the absence of solvent) and dissolved at a 0.1 mol/L concentration in the "n-dodecane/1-octanol 1 (95:5)%vol" mixture, equilibrated with 3 mol/L nitric acid, was carried out. The applied dose rate was 4 kGy/h and the considered integrated doses were 250 kGy, 500 kGy, 750 kGy and 1000 kGy. After each integrated dose, the extraction capability of Am(III) and Eu(III) was evaluated as described in section C.
The considered integrated doses in this experiment were 500 kGy and 1000 kGy at a dose rate of 4 kGy/h.

[2] = Hydrolytic stability, extraction capability after contact with 3 mol/L nitric acid; assay type: physicochemical; conditions: 0.1 mol/L in n-dodecane/1-octanol (95:5)%vol; for extraction capability of Eu (III) (DEu): during the different contact time periods with 3 mol/L nitric acid
Method: The organic solutions of the compounds to be tested were prepared and equilibrated with 3 mol/L nitric acid, as has been indicated in sections A) and B).
Then, 700 µL of the equilibrated organic phase were put in vials of an approximate volume of 2 mL and were contacted with 700 µL of 3 mol/L nitric acid. They were stirred vigorously in an oscillating shaker for periods of 7, 15, 24, 36, 42, 50 and 66 days. After each permanent contact period with the nitric acid aqueous phase, the extraction capability of the organic solution was evaluated, taking 600 µL of the corresponding organic phase and contacting it with 600 µL of aqueous phase formed by a 3 mol/L nitric acid solution spiked with 600 Bq of ^152Eu and with 600 Bq of ^241Am. It was stirred vigorously by means of an oscillating shaker for 15 minutes. The separation of the phases was carried out by centrifugation at 5000 rpm. 400 µL of each of the phases were taken for the determination of the concentration of ^152Eu and ^241Am, as in section C).
After the permanent contact periods with the 3 mol/L nitric acid solution, the extraction capability of the organic solutions of both compounds was evaluated with 3 mol/L nitric acid solutions containing 600 Bq of ^152 Eu and 600 Bq of ^241Am.

[3] = irradiated dissolved in n-dodecane/1-octanol (95:5)%vol, equilibrated with 3 mol/L nitric acid
[4] = irradiated in the absence of solvent

Substance | DEu [1, 3] | Dn ([1]; up to 1000 kGy, irradiated dissolved in n-dodecane/1-octanol (95:5)%vol, equilibrated with 3 mol/L nitric acid) | DAm ([2]; after 42 days of permanent contact with 3 mol/L nitric acid) | extraction capability of Eu (III) (DEu) [2] | DAm [1, 3] | DAm [1, 4] | DEu [1, 4] | DAm ([2]; after 66 days of permanent contact with 3 mol/L nitric acid)
2-Dioctylcarbamoylmethoxy-N-[3-[3-(2-dioctylcarbamoyl-methoxyacetylamino)propoxy]propyl]acetamide [Compound 18] | 964 | 531 | 280 | remains constant |  |  |  | 
2-Dioctylcarbamoylmethoxy-N-[3-[(2-dioctylcarbamoyl-methoxy-acetylamino)methyl]benzyl]acetamide [Compound 4] | 780 |  |  | remains constant | 180 | 540 | 1000 | 145
